US6608082B1, “Treatment of erectile dysfunction using isoquinoline compound melanocortin receptor ligands” (Lion Bioscience AG, priority 1998, dated 2003)

Legend:
TNF-α = assay: Reduction of lipopolysaccharide-induced tumor necrosis factor levels in mice; format: in vivo, BALB/c female mice; settings: IP, plasma 90 or 105 minutes after LPS, mean ± SEM
Procedure: BALB/c female mice weighing approximately 20 g were placed into a control group and a treated group. Five mg/kg of LPS in 0.9% saline was administered (100 μl to give 100 μg LPS per mouse) by intraperitoneal (IP) injection to all mice. Mice in the treatment group received either 30, 100, 300 or 600 μg of various isoquinoline compounds per mouse in a volume of 100 μl of PBS. Control mice received 100 μl of saline alone. One minute after initial injections all mice received the LPS injection. As a positive control, 100 μg of HP 228 was injected per mouse.
Blood samples were collected from the orbital sinus of treated and control mice 90 minutes or 105 minutes after LPS administration. The plasma was separated by centrifugation at 3000×g for 5 min and stored at −20° C. Samples were thawed and diluted, if TNF-α concentration was greater than 3200 pg/ml, with PBS containing 1% bovine serum albumin, 10% donor horse serum, 1% normal mouse serum, 0.05% TWEEN-20 and 0.05% thimerosal. A 100 μl sample of plasma was assayed by ELISA for TNF-α. Briefly, ELISA plates were coated with hamster anti-mouse TNF-α antibody (Genzyme; Cambridge Mass.). Samples or known concentrations of TNF-α were added to the coated plates and incubated for 2 hr at 37° C. Plates were washed and subsequently incubated with biotinylated rabbit anti-mouse TNG-α for 1 hr at 37° C. Plates were washed and incubated with streptavidin-HRP for 1 hr at 37° C., and HRP activity was detected with hydrogen peroxide and o-phenylenediamine (OPD) using standard immunoassay procedures.
The mean (±SEM) TNF-α level in five mice from each group was determined and the percent reduction in TNF-α levels was calculated.

IL-10 = assay: Increasing levels of IL-10 in mice (plasma ELISA); format: in vivo; settings: IP, mouse plasma, 90 or 105 minutes
Procedure: Isoquinoline compounds were administered intraperitoneally to mice in doses of 30, 100 or 300 μg/mouse or orally in doses of 300 or 600 μg/mouse. Levels of IL-10 were measured 90 or 105 minutes after administration as indicated. Samples were collected and diluted, when appropriate, as described in Example VI. A 100 μl sample of plasma was assayed by ELISA for IL-10. Briefly, ELISA plates were coated with rat anti-mouse IL-10 monoclonal antibody (Pharmingen; San Diego Calif.). Samples or known concentrations of IL-10 were added to the coated plates and incubated for 2 hr at 37° C. Plates were washed and incubated with biotinylated rat anti-mouse IL-10 (R&D Systems; Minneapolis Minn.) for 1 hr at 37° C. Plates were washed and incubated with streptavidin-HRP 30 min at 37° C., and HRP activity was detected with hydrogen peroxide and TMB using standard immunoassay procedures.

MCR-5 = molecular target: T1, MCR-5 (Homo sapiens, UniProt P33032); assay: Melanocortin receptor binding assay, competition with 125I-HP 467, HEK 293 cells expressing hMCR-5; settings: binding to MCR-5, HEK 293 cells; read-out: MC-5 IC50
T1 construct: expressed in transfected cells; host or cells: HEK 293
Excerpt: (§1) All cell culture media and reagents were obtained from GibcoBRL (Gaithersburg Md.), except for COSMIC CALF SERUM (HyClone; Logan Utah). HEK-293 cell lines were transfected with the human MC receptors hMCR-1, hMCR-3, and hMCR-4 (Gantz et al., Biochem. Biophys. Res. Comm. 200:1214-1220 (1994); Gantz et al., J. Biol. Chem. 268:8246-8250 (1993); Gantz et al. J. Biol. Chem. 268:15174-15179 (1993); Haskell-Leuvano et al., Biochem. Biophys. Res. Comm. 204:1137-1142 (1994); each of which is incorporated herein by reference). Vectors for construction of an hMCR-5 expressing cell line were obtained, and a line of HEK 293 cells expressing hMCR-5 was constructed (Gantz, supra, 1994). hMCR-5 has been described previously (Franberg et al., Biochem. Biophys. Res. Commun. 236:489-492 (1997); Chowdhary et al., Cytogenet. Cell Genet. 68:1-2 (1995); Chowdhary et al., Cytogenet. Cell Genet. 68:79-81 (1995), each of which is incorporated herein by reference). HEK 293 cells were maintained in DMEM, 25 mM HEPES, 2 mM glutamine, non-essential amino acids, vitamins, sodium pyruvate, 10% COSMIC CALF SERUM, 100 units/ml penicillin, 100 μg/ml streptomycin and 0.2 mg/ml G418 to maintain selection.
(§2) Before assaying, cells were washed once with phosphate buffered saline (“PBS”; without Ca^2+ and Mg^2+), and stripped from the flasks using 0.25% trypsin and 0.5 mM EDTA. Cells were suspended in PBS, 10% COSMIC CALF SERUM and 1 mM CaCl2. Cell suspensions were prepared at a density of 2×10^4 cells/ml for HEK 293 cells expressing hMCR-3, hMCR-4 or hMCR-5, and 1×10^5 cells/ml for HEK 293 cells expressing hMCR-1. Suspensions were placed in a water bath and allowed to warm to 37° C. for 1 hr.
(§3) Binding assays were performed in a total volume of 250 μl for HEK 293 cells. Control and test compounds were dissolved in distilled water. ^125I-HP 467 (50,000 dpm) (2000 Ci/mmol) (custom labeled by Amersham; Arlington Heights Ill.) was prepared in 50 mM Tris, pH 7.4, 2 mg/ml BSA, 10 mM CaCl2, 5 mM MgCl2, 2 mM EDTA and added to each tube. To each tube was added 4×10^3 HEK 293 cells expressing hMCR-3, hMCR-4 or hMCR-5, or 2×10^4 cells expressing hMCR-1. Assays were incubated for 2.5 hr at 37° C.
(§4) GF/B filter plates were prepared by soaking for at least one hour in 5 mg/ml BSA and 10 mM CaCl2. Assays were filtered using a Brandel 96-well cell harvester (Brandel Inc.; Gaithersburg, Md.). The filters were washed four times with cold 50 mM Tris, pH 7.4, the filter plates were dehydrated for 2 hr and 35 μl of MICROSCINT was added to each well. Filter plates were counted using a Packard Topcount (Packard Instrument Co.) and data analyzed using GraphPad PRISM v2.0 (GraphPad Software Inc.; San Diego Calif.) and Microsoft EXCEL v5.0a (Microsoft Corp.; Redmond Wash.).
(§5) To assay isoquinoline compounds, binding assays were performed in duplicate in a 96 well format. HP 467 was prepared in 50 mM Tris, pH 7.4, and ^125I-HP 467 was diluted to give 100,000 dpm per 50 μl. An isoquinoline compound, synthesized as described in Example I, was added to the well in 25 μl aliquots. A 25 μl aliquot of ^125I-HP 467 was added to each well. A 0.2 ml aliquot of suspended cells was added to each well to give the cell numbers indicate above, and the cells were incubated at 37° C. for 2.5 hr. Cells were harvested on GF/B filter plates as described above and counted.
(§6) Some of the isoquinoline compounds were further tested for binding to MCR-3 and MCR-5.

MCR-3 = molecular target: T2, MCR-3 (Homo sapiens, UniProt P41968); assay: Melanocortin receptor binding assay, competition with 125I-HP 467, HEK 293 cells expressing hMCR-3; settings: binding to MCR-3, HEK 293 cells; read-out: MC-3 IC50
T2 construct: expressed in transfected cells; host or cells: HEK 293
Excerpt: as §1, §2, §3, §4, §5, §6

[1] = Body weight and food consumption after i.p. administration; format: in vivo, Sprague-Dawley rats; settings: rats, 5 mg/kg i.p., 18 hours after injection; FIG. 6
Excerpt: Adult male Sprague-Dawley rats (175-225 g) were used to assess the effect of isoquinoline compounds on food uptake and body weight. Baseline body weight and food consumption measurements were taken for 3 days prior to start of the study (Day 0). On Day −1, the food was taken away from the animals at 5:00 PM. The next morning (Day 0), body weight measurements were taken, and the animals were divided into treatment groups with 6 animals in each group. The treatment groups were saline control, HP 228 positive control and test isoquinoline compounds. Saline was administered i.p. at 1 ml/kg. HP 228 and test isoquinoline compounds were administered i.p. at 5 mg/kg. The injections were initiated at 2:00 PM on Day 0.
Body weight and food consumption measurements were taken at 9 hr (Day 0; 11:00 PM) and at 18 hr (Day 1, 8:00 AM) after injection. At the end of the study, all evaluated parameters (9 and 18 hour body weight and food consumption) were analyzed by standard statistical methods. Significance (P<0.05) was determined by one-way ANOVA, ANOVA for repeated measures, or Student's t-test.
The level of reduction was similar to that seen with HP 228.

[2] = tested on: arachidonic acid induced dermal inflammation; assay: Arachidonic acid induced dermal inflammation (ear thickness); format: in vivo, Female BALB/c mice
Procedure: Female BALB/c mice (17-22 g) were used and administered the test isoquinoline compounds or positive control compounds 30 to 60 min prior to topical application of arachidonic acid. Indomethacin and HP 228 were used as positive controls. Compounds were administered orally (p.o.) or intraperitoneally (i.p.). Initial ear thickness (left and right) was measured using spring loaded micro-calipers. Arachidonic acid was applied to mice anesthetized with a cocktail of ketamine/xylazine (7.0 mg/ml and 0.6 mg/ml, respectively) administered i.p. (300 μl/mouse). Utilizing a micro-pipette, 20 μl of arachidonic acid solution (100 mg/ml ethanol or acetone) was applied to the right ear (10 μl to inner and 10 μl to outer surfaces of […] for a total of 2 mg arachidonic acid per right ear), and 20 μl of vehicle (ethanol or acetone) was applied to the left ear. Mice were returned to their cages to recover. Mice were again anesthetized 50 min after arachidonic acid application and their ears measured.
Dermal inflammation was determined by subtracting the difference of the vehicle treated left ear (L60−L0) from the difference of the arachidonic acid treated right ear (R60−R0). Ear thickness measurements were averaged for each group, and the responses in the vehicle treated control group (Cr; saline or PBS) were subtracted from the response noted in the isoquinoline compound treated group (Tr) to give the relative inflammatory response for each treatment group compared to the control group. The percent inhibition is defined by the equation: % inhibition=(Cr−Tr)/(Cr)×100.

T2 sequence (P41968 whole entry): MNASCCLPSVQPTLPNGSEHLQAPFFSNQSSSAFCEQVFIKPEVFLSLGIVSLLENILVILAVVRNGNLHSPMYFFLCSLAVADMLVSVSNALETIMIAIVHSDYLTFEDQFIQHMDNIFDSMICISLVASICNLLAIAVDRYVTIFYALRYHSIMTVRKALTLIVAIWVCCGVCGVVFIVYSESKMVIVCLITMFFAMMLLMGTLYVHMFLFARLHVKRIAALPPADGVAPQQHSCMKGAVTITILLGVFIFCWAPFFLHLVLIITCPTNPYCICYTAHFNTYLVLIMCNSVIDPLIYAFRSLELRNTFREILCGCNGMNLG
T1 sequence (P33032 whole entry): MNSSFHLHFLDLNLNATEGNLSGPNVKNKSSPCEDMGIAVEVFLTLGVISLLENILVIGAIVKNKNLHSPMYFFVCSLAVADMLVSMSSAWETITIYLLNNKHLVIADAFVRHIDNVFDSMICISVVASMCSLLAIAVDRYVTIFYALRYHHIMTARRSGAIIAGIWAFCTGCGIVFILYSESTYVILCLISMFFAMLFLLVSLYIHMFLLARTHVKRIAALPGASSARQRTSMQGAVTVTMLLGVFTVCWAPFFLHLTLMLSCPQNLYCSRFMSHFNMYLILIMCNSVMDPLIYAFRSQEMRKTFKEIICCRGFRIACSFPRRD

Compound | % TNF-α Inhibtion, IP 30 (TNF-α; 30 μg per mouse) [%] | % TNF-α Inhibtion, IP 300 (TNF-α; 300 μg per mouse) [%] | % IL-10 Induction, IP 30 (IL-10; 30 μg per mouse) [%] | % IL-10 Induction, IP 300 (IL-10; 300 μg per mouse) [%] | IC50 (MCR-5) [µM] | IC50 (MCR-3) [µM] | food consumption [1] | weight gain [1] | inhibition of arachidonic acid induced dermal inflammation ([2]; 100 μg/mouse administered intraperitoneally, FIG. 4) | inhibition of arachidonic acid induced dermal inflammation ([2]; administered intraperitoneally, TRG 2405-241 300 μg/mouse, HP 228 100 μg/mouse, FIG. 3) | reduction in the level of arachidonic acid-induced dermal inflammation ([2]; intraperitoneally, HP 228 100 μg/mouse, TRG 2409-2 or TRG 2409-14 100 or 300 μg/mouse, FIG. 5)
CCNc1ccc(C2C(CNC3CCCC3)c3ccccc3CN2CCCCC(CN)NC)cc1 (centres unmarked) [TRG 2407-67] | 8 ± 14 | 73 ± 3 | −3 ± 15 | 29 ± 8 | 4.16 | 20.9 |  |  |  |  | 
Ac-Nle-Gln-His-(D)Phe-Arg-(D)Trp-Gly-NH2 [HP 228, reference compound] |  |  |  |  |  |  | reduction | reduction | inhibition of arachidonic acid induced dermal inflammation | inhibition of arachidonic acid induced dermal inflammation | reduction
